{"source": "patent US10167322B2", "about": "“Engineered albumin binding polypeptide” (AFFIBODY AB, priority 2013, dated 2019)", "key": {"trypsin and chymotrypsin": {"test_system": "trypsin and chymotrypsin", "assay": "Protease degradation analysis with trypsin and chymotrypsin (RP-HPLC of intact polypeptide)", "type": "in vitro ADME, bovine", "settings": "for AUC increase / resistance towards degradation by trypsin together with chymotrypsin compared to PEP07830 / Resistance towards degradation by trypsin and chymotrypsin, screening: 2.7 μg ml^−1 trypsin, 1.2 μg ml^−1 chymotrypsin, 37 °C; for AUC increase / resistance towards degradation by trypsin together with chymotrypsin compared to PEP07830: 0-60 min; for Resistance towards degradation by trypsin and chymotrypsin, screening: PBS pH 7.4, 10 min", "method": "(§1) Proteolytic degradation was studied using pepsin (obtained from porcine gastric mucosa, 3200-4500 U mg^−1, Sigma) and a mixture of trypsin (obtained from bovine pancreas, ≈37 U mg^−1, Sigma) and chymotrypsin (obtained from bovine pancreas, ≥40 U mg^−1, Sigma). In all degradation experiments, 5 μg protein in PBS (pH 7.4) at a concentration of 0.25 mg ml^−1 (50 μM) was used.\n5 μg of each variant was transferred to a microcentrifuge tube. 32 μl PBS (pH 7.4) with trypsin at a concentration of 4.39 μg ml^−1 and chymotrypsin at a concentration of 1.95 μg ml^−1 was added to yield a final concentration of 2.7 μg ml^−1 of trypsin and 1.2 μg ml^−1 of chymotrypsin. In the screening experiment, the samples were incubated for 10 min at 37° C. before the enzyme was inactivated by addition of 3 μl 10% TFA and then the sample was put on ice. A reference sample of each protein was inactivated with TFA before the trypsin and chymotrypsin were added to the tube.\nThe degradation over time was monitored for PEP18049_CL, PEP14788_CL_A and the reference polypeptide PEP07830 by incubation for 3, 6, 12, 30, or 60 min at 37° C. before inactivation with TFA. As above, reference samples, inactivated with TFA before trypsin and chymotrypsin were added to the tube, were incubated likewise.\n(§2) All samples were analyzed by RP-HPLC using an analytical column (Zorbax 300SB-C18, 4.6×150 mm, 3.5 μm particle size, Agilent Technologies) and a gradient of 15-45% solvent B (solvent A: 0.1% TFA-H2O; solvent B: 0.1% TFA-CH3CN) over 25 min at a flow rate of 1.2 ml min^−1 and LC-ESI-MS on a 6520 Accurate Mass Q-TOF LC/MS.\n(§3) The elution peaks containing the intact polypeptides were integrated and the area under curve was calculated. The degradation experiments over time were performed in triplicates. The integrated area of each sample was normalized to the mean area of the t=0 samples of that variant, the mean and standard error of the mean were calculated for each time point.\n(§4) To quantify the stability improvement of the crosslinked variants, the AUC (area under curve) from the normalized charts was calculated for the three investigated variants. The AUC of the crosslinked variants was then compared to the AUC of the reference polypeptide."}, "pepsin": {"target": "T1, pepsin (Sus scrofa, UniProt P00791)", "T1 construct": "purchased Sigma; host or cells: porcine gastric mucosa", "T1 sequence (P00791 60-385)": "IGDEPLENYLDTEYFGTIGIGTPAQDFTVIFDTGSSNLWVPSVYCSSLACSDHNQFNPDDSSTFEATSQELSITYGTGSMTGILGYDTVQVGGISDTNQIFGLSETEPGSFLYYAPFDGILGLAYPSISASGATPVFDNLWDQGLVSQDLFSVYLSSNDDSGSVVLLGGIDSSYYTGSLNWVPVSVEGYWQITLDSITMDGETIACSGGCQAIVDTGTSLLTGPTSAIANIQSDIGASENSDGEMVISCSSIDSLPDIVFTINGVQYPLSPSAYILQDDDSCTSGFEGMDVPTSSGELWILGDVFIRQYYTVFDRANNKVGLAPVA", "assay": "Protease degradation analysis with pepsin (RP-HPLC of intact polypeptide)", "type": "in vitro ADME, porcine", "settings": "for AUC increase / resistance towards degradation by pepsin compared to PEP07830: 0.5 μg ml^−1 pepsin, 0-60 min; for AUC increase / resistance towards degradation by pepsin compared to PEP07830 / Resistance towards degradation by pepsin, screening: 37 °C; for Resistance towards degradation by pepsin, screening: 2 μg ml^−1 pepsin, pH around 2.6, 10 min", "method": "as §1\n5 μg of each variant was transferred to a microcentrifuge tube. 32 μl 10 mM HCl with pepsin at a concentration of 3.25 μg ml^−1 or 0.81 μg ml^−1, resulting in a pH around 2.6 and a final pepsin concentration of 2 μg ml^−1 to be used for screening experiment and 0.5 μg ml^−1 for studying the degradation over time. In the screening experiment, the samples were incubated for 10 min at 37° C. before the enzyme was inactivated by addition of 5 μl 0.1 M NaOH, which raised the pH to above 9, and then the sample was put on ice. A reference sample of each protein was inactivated with NaOH before pepsin was added to the tube.\nThe degradation over time was monitored for PEP18049_CL, PEP14788_CL_A and the reference polypeptide PEP07830 by incubation for 3, 6, 12, 30 or 60 min at 37° C. before inactivation with NaOH. Reference samples, inactivated with NaOH before the pepsin was added to the tube, were incubated likewise.\nas §2, §3, §4"}, "[1]": {"target": "T2, human serum albumin (HSA) (Homo sapiens, UniProt P02768)", "assay": "SPR biosensor (ProteOn XPR36) HSA binding kinetics, 1:1 Langmuir fit", "settings": "for comparison only; for kon / koff: triplicate, mean (±SD), relative values; for kon: read-out: ka (association rate constant); for koff: read-out: kd (dissociation rate constant)", "method": "The HSA binding kinetics of PEP18049_CL and the reference protein PEP07830 were further studied using a sensor chip with HSA immobilized on three different surfaces to between 1100 RU and 1600 RU. The proteins were diluted in running buffer (0.8, 1.6, 3.3, and 6.6 nM for PEP18049_CL and 1.0, 2.0, 4.0 and 8.0 nM for PEP07830) and injected over the three HSA surfaces and thus giving binding curves in triplicate. The association time was 300 s and the dissociation was followed for 36 000 s (10 h).\nThe kinetic parameters of the binding of PEP18049_CL and the reference protein PEP07830 to HSA were obtained from fitting the obtained sensorgrams to a 1:1 Langmuir binding model using the ProteOn Manager software version 3.1.0.6 (Bio-Rad). The average association rate constant (ka (M^−1 s^−1) and dissociation rate constant (kd (s^−1)) with standard deviation were calculated. From the average ka and the kd the dissociation equilibrium constant (KD (M)) was calculated (KD=kd/ka)."}, "[2]": {"target": "T2, human serum albumin (HSA)", "assay": "SPR biosensor (ProteOn XPR36) screening of binding to immobilized HSA", "settings": "50 nM polypeptide, 2500 RU immobilized HSA, 25 °C", "method": "Biosensor binding analyses were performed on a ProteOn XPR36 instrument (Bio-Rad) at 25° C. using PBST (150 mM NaCl, 8 mM Na2HPO4, 2 mM NaH2PO4, 0.005% Tween20, pH 7.4) as running buffer at a flow rate of 50 μl min^−1. An injection of 30 μl of 20 mM HCl at a flow rate of 100 μl min^−1 was used for chip regeneration. In a screening experiment, the binding of all polypeptide variants to human serum albumin (HSA) was investigated. The proteins were diluted to 50 nM in running buffer and injected over a chip surface with 2500 RU of immobilized HSA. The association was studied for 300 s and the dissociation was followed for 7200 s (2 h). For data analysis, all samples were double referenced; the signal from a blank surface was first subtracted from the signal from the respective protein, and secondly the signal from an injection of PBST (running buffer) over the HSA surface was subtracted."}, "[3]": {"assay": "Circular dichroism variable temperature measurement (melting temperature)", "type": "physicochemical", "settings": "CD at 221 nm, 20-90 °C, 50 μM in PBS pH 7.4", "method": "Polypeptides were dissolved in PBS (pH 7.4) to a concentration of 50 μM (approximately 0.25 mg ml^−1) and CD spectra and melting curves were collected on a Jasco J-810 spectropolarimeter (Jasco) using a cell with an optical path-length of 1 mm. Variable temperature measurements, VTM, were used to determine Tm. In these measurements, the […] was measured at 221 nm from 20° C. to 90° C., with a temperature slope of 5° C. min^−1. The secondary structure of each variant was analyzed by recording a spectrum ranging from 250 to 195 nm at 20° C., both before and after VTM."}, "[4]": {"settings": "human, HSA immobilized on SPR sensor chip (ProteOn XPR36)"}, "[5]": {"settings": "LC-ESI-MS of degradation products"}}, "note": "Values joined by “and” are separate entries in the source; they are usually repeats but may differ in a detail not shown here. Identical values can stand only once. Like-named read-outs stand apart in the source and are kept apart here. Starred links: 1 amine or outer side, 2 acyl side, 3 side chain; linkers in the order of their positions; H or OH if unused. Positions of bridges follow the written chain, without caps; N, C: chain ends. No end group written: not given here. Pyridine(2,6-diCH2) = c1cc(C[*:1])nc(C[*:2])c1; mXylylene = c1cc(C[*:1])cc(C[*:2])c1; oXylylene = c1ccc(C[*:2])c(C[*:1])c1; X1 = O=C(C[*:1])[*:2]"}
{"substance": "LAEAKEAANAELDSYGCSDFYKRLIDKAKTVEGVEALKDAILAACP-NH2 (linker 17-45 via oXylylene) [PEP14788_CL_A]", "values": [{"measurement": "AUC increase / resistance towards degradation by trypsin together with chymotrypsin compared to PEP07830", "setting": "trypsin and chymotrypsin", "result": 1.4, "unit": "fold"}, {"measurement": "Resistance towards degradation by trypsin and chymotrypsin, screening", "setting": "trypsin and chymotrypsin", "result": "no significant difference between these variants"}, {"measurement": "AUC increase / resistance towards degradation by pepsin compared to PEP07830", "setting": "pepsin", "result": 2.4, "unit": "fold"}, {"measurement": "Resistance towards degradation by pepsin, screening", "setting": "pepsin", "result": "no significant difference between these variants"}]}
{"substance": "Ac-LAEAKEAANAELDSYGCSDFYKRLIDKAKTVEGVEALKDAILAAKP-NH2 (linker 17-45 via X1) [PEP18049_CL]", "values": [{"measurement": "AUC increase / resistance towards degradation by trypsin together with chymotrypsin compared to PEP07830", "setting": "trypsin and chymotrypsin", "result": 5, "unit": "fold"}, {"measurement": "Resistance towards degradation by trypsin and chymotrypsin, screening", "setting": "trypsin and chymotrypsin", "result": "increased resistance towards degradation"}, {"measurement": "kon", "setting": "[1]; [4]", "result": 620000, "unit": "M⁻¹ s⁻¹"}, {"measurement": "koff", "setting": "[1]; [4]", "result": "1.5e-05", "unit": "s⁻¹"}, {"measurement": "Kd", "setting": "[1]; triplicates", "result": "~0.024 nM and 0.024 nM"}, {"measurement": "HSA binding in screening experiment", "setting": "[2]", "result": "fast on-rate and a two phase-like dissociation"}, {"measurement": "Tm (melting temperature)", "setting": "[3]", "result": 63, "unit": "°C"}, {"measurement": "AUC increase / resistance towards degradation by pepsin compared to PEP07830", "setting": "pepsin", "result": 17, "unit": "fold"}, {"measurement": "Resistance towards degradation by pepsin, screening", "setting": "pepsin", "result": "increased resistance towards degradation"}]}
{"substance": "PEP18052_CL: SEQ ID NO:1771 (PEP18052), control polypeptide, double crosslinked (LAEAKEAANAELDSYGCSDFYKRLIDKCKTVEGVEALKDAILAAKP; double crosslinked; Engineered albumin binding polypeptide)", "values": [{"measurement": "HSA binding in screening experiment", "setting": "[2]", "result": "completely lost their affinity for HSA"}]}
{"substance": "PEP18053_CL: SEQ ID NO:1772 (PEP18053), control polypeptide, double crosslinked (CAEAKEAANAELDSYGCSDFYKRLIDKAKTVEGVEALKDAILAAKP; double crosslinked; Engineered albumin binding polypeptide)", "values": [{"measurement": "HSA binding in screening experiment", "setting": "[2]", "result": "weak binding"}]}
{"substance": "LAEAKEAANAELDSYGVSDFYKRLIDKAKTVEGVEALKDAILAALP-NH2 (C-terminus assumed) [PEP07830, reference compound]", "values": [{"measurement": "Peptide bond most susceptible for cleavage by trypsin and chymotrypsin", "setting": "trypsin and chymotrypsin; [5]", "result": "between Tyr21 and Lys22"}, {"measurement": "Kd", "setting": "[1]; human, KD=kd/ka from average ka and kd", "result": 0.021, "unit": "nM"}, {"measurement": "kon", "setting": "[1]; human", "result": 190000, "unit": "M⁻¹ s⁻¹"}, {"measurement": "koff", "setting": "[1]; human", "result": "4.1e-06", "unit": "s⁻¹"}, {"measurement": "Kd", "setting": "[1]; human, triplicates", "result": "~0.021", "unit": "nM"}, {"measurement": "Peptide bond rapidly cleaved by pepsin (major degradation products)", "setting": "pepsin; [5]", "result": "between Leu42 and Ala43"}]}
{"substance": "LAEAKEAANAELDSYGCSDFYKRLIDKAKTVEGVEALKDAILAACP-NH2 (linker 17-45 via mXylylene) [PEP14788_CL_B]", "values": [{"measurement": "Resistance towards degradation by trypsin and chymotrypsin, screening", "setting": "trypsin and chymotrypsin", "result": "no significant difference between these variants"}, {"measurement": "Resistance towards degradation by pepsin, screening", "setting": "pepsin", "result": "no significant difference between these variants"}]}
{"substance": "PEP18051_CL: SEQ ID NO:1770 (PEP18051), control polypeptide, crosslinked Cys1-Lys29 (CAEAKEAANAELDSYGVSDFYKRLIDKAKTVEGVEALKDAILAALP; Cys1-Lys29 crosslink; Engineered albumin binding polypeptide)", "values": [{"measurement": "HSA binding in screening experiment", "setting": "[2]", "result": "slower on-rate, but also seemed to have a very slow off-rate indicating a high affinity for HSA"}]}
{"substance": "PEP18050_CL: SEQ ID NO:1769 (PEP18050), control polypeptide, crosslinked Lys5-Cys28 (LAEAKEAANAELDSYGVSDFYKRLIDKCKTVEGVEALKDAILAALP; Lys5-Cys28 crosslink; Engineered albumin binding polypeptide)", "values": [{"measurement": "HSA binding in screening experiment", "setting": "[2]", "result": "completely lost their affinity for HSA"}]}
{"substance": "LAEAKEAANAELDSYGCSDFYKRLIDKAKTVEGVEALKDAILAACP-NH2 (linker 17-45 via Pyridine(2,6-diCH2)) [PEP14788_CL_E]", "values": [{"measurement": "Resistance towards degradation by trypsin and chymotrypsin, screening", "setting": "trypsin and chymotrypsin", "result": "no significant difference between these variants"}, {"measurement": "Resistance towards degradation by pepsin, screening", "setting": "pepsin", "result": "no significant difference between these variants"}]}
